Measurements: PubChem BioAssay AID1996
≈ marks a conversion by molar mass, not a printed value.

Conditions: buffer; pH 7.4; 200.0 µM

solubility kinetic [µg/mL]	SMILES
> 43.2	COc1ccc(C(C)=O)cc1Cn1c(=O)cc(C)[nH]c1=O
12.5 (≈ 60.9 µM)	CN(C)c1nc(-c2ccccc2)ns1
31.5 (≈ 123 µM)	S=C(NCCc1ccccc1)Nc1ccccc1
8.6 (≈ 32.8 µM)	C=CCSc1nc(C)cc(C(=O)OCC)c1C#N
7.5 (≈ 28.3 µM)	Fc1ccc(N=c2ssnc2Cl)c(F)c1
> 45.9	NC(=O)c1ccsc1NC(=O)COC(=O)c1cnccn1
53.7 (≈ 147 µM)	COc1ccc(S(=O)(=O)N2CCN(C(=O)C3CCCCC3)CC2)cc1
8.6 (≈ 29.2 µM)	Cc1ccc(N2CC(=O)N(c3ccc(C)cc3)CC2=O)cc1
> 33.1	Cc1cc(=O)[nH]c(-c2ccc(Cl)cc2)n1
> 32.6	Cc1c(C=O)c2ccccc2n1CC(=O)O
34.9 (≈ 111 µM)	O=C(Oc1ccc(Oc2ccccc2)cc1)N1CCC(O)CC1
> 57.2	O=C(O)c1ccc(S(=O)(=O)N(Cc2cccs2)CC2CCCO2)cc1 (configuration not stated)
2.7 (≈ 7.84 µM)	Cc1ccc(NC(=O)CN2C(=O)c3ccccc3S2(=O)=O)c(C)c1
> 57.1	COc1ccc(OC)c(S(=O)(=O)NCCCN2CCOCC2)c1.Cl
11.3 (≈ 31 µM)	O=C(CSC(=S)N1CCCCC1)Nc1ncc2c(n1)CCCC2=O
8.4 (≈ 24.3 µM)	Nc1cc(=O)[nH]c(SCC(=O)Nc2cccc(Cl)c2Cl)n1
11.1 (≈ 42.6 µM)	Cc1ccc(NC(=S)Nc2ccc(F)cc2)cc1
3 (≈ 8.53 µM)	O=C(Nc1ccc(NC(=O)c2ccccc2Cl)cc1)c1cccnc1
> 50.3	CCOC(=O)N1CCN(C(=S)Nc2ccccc2C(C)C)CC1
> 58.3	COc1ccc(NS(=O)(=O)c2ccc(C(=O)N3CCC(C)CC3)cc2)cc1
> 31.7	Cc1[nH]c(=O)[nH]c(=O)c1N1CCOCC1
37.6 (≈ 132 µM)	Cc1noc(C)c1C(=O)Nc1ccccc1N1CCCC1
45.9 (≈ 146 µM)	O=C(NCCCN1CCCC1=O)c1ccc(Cl)c(Cl)c1
39.2 (≈ 122 µM)	COc1ccccc1CNC(=O)CCc1cn(C)c2ccccc12

solubility kinetic [µg/mL]	SMILES
> 44.5	Cn1c(SCC(=O)O)nc2sc3c(c2c1=O)CCC3
17.1 (≈ 32.7 µM)	COc1ccc(NC(=O)CNC(=O)c2ccco2)cc1S(=O)(=O)Nc1cc(C)ccc1Br
> 48.7	COC(=O)CCCC(=O)N1CCC(CCC(=O)NC2CC2)CC1
> 54.8	CC(=O)N1CCN(CCS(=O)(=O)c2cc(Cl)ccc2Cl)CC1
> 48.1	CC(=O)Nc1ccc(-c2cc(C(=O)O)c3ccc(C)cc3n2)cc1
29.2 (≈ 98.9 µM)	CN(CCc1ccccn1)Cc1ccc(Cl)c(Cl)c1
> 31.2	Cc1cc(C(=O)N2CCC(C)CC2)on1
2.9 (≈ 9.69 µM)	O=C(Nc1nc2ccccc2s1)c1ccccc1[N+](=O)[O-]
> 42.8	CC1CCCC(NC(=O)CSc2nncs2)C1C (configuration not stated)
29.2 (≈ 111 µM)	O=[N+]([O-])c1ccccc1/C=C/CN1CCC(O)CC1
45.9 (≈ 148 µM)	Cc1ccccc1C(=O)Nc1ccc(CN2CCOCC2)cc1
> 38.3	Cc1ccc(S(=O)(=O)N2CC[C@@H]2C(=O)O)cc1
0.4 (≈ 1.28 µM)	COC(=O)c1sccc1NC(=S)N(C)C1CCCCC1
42.8 (≈ 136 µM)	S=C(Nc1ccc(Oc2ccccc2)cc1)N1CCOCC1
31.8 (≈ 104 µM)	Cc1cc2ncn(S(=O)(=O)c3ccc(F)cc3)c2cc1C
> 33.9	Cc1ccc(-c2cnc3n2CCCCC3)cc1
> 51.7	CN1CCN(c2ncnc3scc(-c4ccccc4Cl)c23)CC1
> 47.5	COc1cc(NC(=S)N2CCOCC2)c(OC)cc1Cl
10.3 (≈ 30.6 µM)	Cc1ccc(CC2CC(=O)N(c3nc4ccccc4s3)C2=O)cc1 (configuration not stated)
> 51.9	CCCN1CCC(NC(=S)Nc2cccc(Cl)c2Cl)CC1
0.8 (≈ 2.34 µM)	Cc1nc2sc(C(=O)Nc3ccccc3)c(N)c2c(C)c1[N+](=O)[O-]
> 54.3	Cl.O=C(Nc1cccc(C(F)(F)F)c1)c1cccnc1NCCO
> 48.5	CCOC(=O)CNC(=O)CSc1nccn1Cc1ccco1
5 (≈ 17.2 µM)	O=C1C2C3CCC(C3)C2C(=O)N1c1ccc2ccccc2c1 (configuration not stated)

solubility kinetic [µg/mL]	SMILES
20 (≈ 116 µM)	Cc1c(N)cccc1-n1cccc1
0.5 (≈ 1.6 µM)	Cc1ncc([N+](=O)[O-])n1CC(=O)Nc1ccc(F)c(Cl)c1
> 56.6	CSc1ncccc1C(=O)Nc1cccc(S(=O)(=O)N2CCCC2)c1
0.3 (≈ 1.21 µM)	O=C(Nc1ccccn1)Nc1ccccc1Cl
> 35	C=C1N(C)c2cc([N+](=O)[O-])c(N)cc2C1(C)C
> 49.1	CC(CCc1ccccc1)NC(=O)CNc1cccc([N+](=O)[O-])c1 (configuration not stated)
> 39.3	CC(OC(=O)c1ccncc1)C(=O)NC1CCCC1 (configuration not stated)
> 59.3	CN(C)CCOC1c2ccccc2C=Cc2ccccc21.O=C(O)/C=C\C(=O)O
> 39.5	Nc1ccccc1C(=O)NCCCN1CCOCC1
< 0.7	O=C(Nc1ccc(O)cc1)c1ccccc1OCc1ccccc1
37.5 (≈ 132 µM)	Cc1cccc(C(=O)NCCNC(=O)c2cccnc2)c1
29 (≈ 66.4 µM)	CCCc1cc(=O)[nH]c(SCC(=O)Nc2ccc(S(=O)(=O)N3CCCC3)cc2)n1
25.5 (≈ 101 µM)	COc1ccc(OC)c(CN2CCSCC2)c1
> 47.2	O=C(NCCCN1CCOCC1)c1cc2ccccc2cc1O
> 49.4	Cc1ccc(CC(C(=O)O)C(C)C(=O)Nc2ccc(F)cc2)cc1 (configuration not stated)
12.6 (≈ 27.5 µM)	CC(C(=O)Nc1ccc(S(=O)(=O)N2CCCC2)cc1)N1CCN(c2ccccc2O)CC1 (configuration not stated)
7.2 (≈ 20.4 µM)	CCOc1ccc(Br)cc1S(=O)(=O)N1CCSC1
34.6 (≈ 94.2 µM)	COc1cccc(CN(C)C(=O)c2sccc2-c2ccccc2)c1OC
> 34.2	COc1ccc(NC(=O)c2cccnc2)cc1
45.4 (≈ 144 µM)	CCC(=O)c1ccc(OCC(=O)NC2(C#N)CCCCC2)cc1
> 66.2	CCOC(=O)C1=C(CC)Nc2ccccc2N/C1=N\S(=O)(=O)c1cccc(C(C)=O)c1
35 (≈ 138 µM)	Cn1c(CNc2ccc(O)cc2)nc2ccccc21
< 0.2	CC(C)(C)c1cc(NC(=O)Nc2ccccc2OC(F)(F)F)no1
> 49.4	COc1ccc(NC2CCCN(C(=O)c3c(C)noc3C)C2)cc1 (configuration not stated)

solubility kinetic [µg/mL]	SMILES
0.7 (≈ 2.87 µM)	O=C1CSC(=S)N1c1cccc(Cl)c1
2.3 (≈ 6.09 µM)	O=C(COC(=O)COc1ccc(Cl)cc1)NCc1ccc2c(c1)OCO2
< 0.4	Cc1c(Br)ccc(NC(=O)COc2ccccc2C(N)=O)c1C
> 49	CCc1nn(CC(=O)Nc2cc(C)ccc2C)c(=N)s1.Cl
> 41.1	Cl.NC(CCC(=O)O)C12CC3CC(CC(C3)C1)C2 (configuration not stated)
4.6 (≈ 13.4 µM)	CN(Cc1ccc2ccccc2c1)C(=O)c1ccc(C(F)(F)F)cc1
38.8 (≈ 147 µM)	S=C(NCCC1=CCCCC1)NCc1ccco1
0.4 (≈ 1.25 µM)	N#C/C(C(N)=O)=C1/SC=C(c2ccccc2)N1c1ccccc1
< 0.6	Cc1ccc(NC(=O)c2cc3ccccc3cc2O)cc1
1.3 (≈ 3.65 µM)	COC(=O)c1scc(C)c1NC(=O)CSc1ccc(Cl)cc1
41.1 (≈ 144 µM)	CC(C)c1ccccc1NC(=S)NCc1ccncc1
0.8 (≈ 2.68 µM)	CCc1ccccc1NC(=O)c1cc(-c2cccs2)on1
> 58.6	CCCCOP(=O)(c1ccc(N(C)C)cc1)C(O)c1ccc(N(C)C)cc1 (configuration not stated)
45.2 (≈ 131 µM)	CC(C)Oc1ccc(OCCn2c(=S)[nH]c3c(N)ncnc32)cc1
9.1 (≈ 31.3 µM)	Cc1ccc(C(C)NC(=S)NC2CCCCC2)c(C)c1 (configuration not stated)
45.4 (≈ 139 µM)	COc1ccccc1N1CN(CCc2ccccc2)CNC1=S
> 23.1	Cc1c[nH]c(=O)c([N+](=O)[O-])c1
36.1 (≈ 141 µM)	CCOC(=O)CC(=O)Nc1ccsc1C(N)=O
> 37.1	Cc1cccc(N2CN=C3SCC(=O)N3C2)c1
> 32.7	CC(C)c1ccccc1-n1cc[nH]c1=S
> 49	O=C1CCCc2nc(N3CCN(C(=O)c4ccco4)CC3)ncc21
3.5 (≈ 11.4 µM)	O=C(Nc1cc(Cl)ccc1N1CCOCC1)c1ccco1
31.8 (≈ 130 µM)	O=C(CCCCN1CCCCC1)c1ccccc1
11.8 (≈ 40.8 µM)	CC(C)c1ccc(C(=O)OCC(=O)NC2CCCC2)cc1

solubility kinetic [µg/mL]	SMILES
> 38.3	COc1cc(-c2nc3ccccn3c2N)ccc1O
49.8 (≈ 139 µM)	COc1cccc(NC(=S)N2CCCN(Cc3ccc(F)cc3)C2)c1
5.6 (≈ 16 µM)	O=C(NC1CCCCC1)c1cccc(S(=O)(=O)N2CCCCC2)c1
4.7 (≈ 16.9 µM)	Cc1ccc(-c2nc(C=Nc3ccccc3)c(O)o2)cc1
> 32.3	Cc1cc(=O)[nH]c(Nc2ccccc2C)n1
13.5 (≈ 49.4 µM)	CCCOc1ccc(CN(C)c2ncnc(N)n2)cc1
23.5 (≈ 65 µM)	COc1ccccc1OCCC(=O)OCC(=O)NCc1ccc(F)cc1
36.5 (≈ 146 µM)	O=C(O)c1ccccc1OCCN1CCCC1=O
6.3 (≈ 21.3 µM)	O=C(NCc1ccccc1)c1cc2ccc(O)cc2oc1=O
13.3 (≈ 34.4 µM)	Cc1cc(C(C)(C)C)cc(C)c1COC(=O)CN1C(=O)NC2(CCCC2)C1=O
35.5 (≈ 129 µM)	CCCSC1C(C)=C(C)C(=O)N1Cc1ccccc1 (configuration not stated)
> 48	COc1cccc(C(=O)OCC(=O)Nc2cc(C)on2)c1OC
0.9 (≈ 2.47 µM)	Clc1ccc(C(c2ccccc2)N2CCN(c3ccccn3)CC2)cc1 (configuration not stated)
> 46.4	CN(C)C(CNc1ccc(C(F)(F)F)cn1)c1ccccc1 (configuration not stated)
42.9 (≈ 142 µM)	CC(=O)c1cccc(NC(=O)C2C3CCC(C3)C2C(=O)O)c1 (configuration not stated)
9.1 (≈ 23.6 µM)	Nc1nonc1OCCN1CCN(c2ccc([N+](=O)[O-])c3cccnc23)CC1
> 51.4	COc1ccccc1N1CCN(Cc2cc3c(cc2O)OCO3)CC1
< 0.4	Cc1cccc(N2C(=NC(=O)c3ccccc3)SC3CS(=O)(=O)CC32)c1 (configuration not stated)
0.9 (≈ 3.06 µM)	O=C1NC(c2ccc(Cl)cc2Cl)Oc2ccccc21 (configuration not stated)
> 44.2	O=C(COC(=O)c1cccnc1Cl)NCc1ccco1
3.9 (≈ 14.6 µM)	COc1ccc(S(=O)(=O)n2cccc2)c(OC)c1
< 0.7	COc1cc2c(cc1OC)C(c1ccccc1OC(C)C)CC(=O)N2 (configuration not stated)
> 54.5	O=C1CC(C(=O)N2CCN(c3ccccc3)CC2)CN1Cc1ccccc1 (configuration not stated)
19 (≈ 50.2 µM)	CCOc1ccc(C(=O)OCC(=O)Nc2cccnc2Cl)cc1OCC

SMILES	solubility kinetic [µg/mL]
c1ccc2c(c1)[nH]c1cnccc12	> 25.2
Cc1cc(Br)ccc1OCCN1CCCC1.O=C(O)C(=O)O	> 56.1
